How the values were obtained:
[1] = Loss of HS from spleen tissue after intrasplenic injection (immunopathology); assay type: in vivo, mice; details: within 5 hours of injection
Procedure: Immunopathology. After intraperitoneal (i.p.) injection of ketamine and xylazine, murine spleens were directly visualized through an incision in the lateral abdominal wall and injected with 100 μl of PBS containing 0.1 U of elastase or PBS alone. Five hours later, the spleen was harvested and pieces snap-frozen. Tissue sections were prepared and stained as previously described (Dempsey et al. supra) with the several modifications. In particular, secondary and tertiary antibodies were mouse serum (Jackson ImmunoResearch Laboratories, West Grove, Pa.) preabsorbed and diluted in M.O.M. diluent (Vector Laboratories, Burlingame, Calif.). Fluorescent images were converted to grayscale using SPOT software (Diagnostic Instruments, Sterling Heights, Mich.).
To determine whether elastase liberates HS in vivo, spleen tissues were harvested from mice that had been injected intrasplenically with the enzyme, and the tissues were tested for the presence of HS. […] Thus, pancreatic elastase can induce loss of HS proteoglycan from tissues in vivo.

[2] = target: T1, TLR4/MD2 complex (Mus musculus, UniProt Q9JHF9+Q9QUK6); assay: Cell surface expression of TLR4/MD2 in HEK/TLR4(+) cells by flow cytometry; assay type: cell-based, murine
T1 construct: expressed in transfected cells; host or cells: HEK 293 clone HEK/TLR4(+)
T1 sequence (Q9QUK6 26-835): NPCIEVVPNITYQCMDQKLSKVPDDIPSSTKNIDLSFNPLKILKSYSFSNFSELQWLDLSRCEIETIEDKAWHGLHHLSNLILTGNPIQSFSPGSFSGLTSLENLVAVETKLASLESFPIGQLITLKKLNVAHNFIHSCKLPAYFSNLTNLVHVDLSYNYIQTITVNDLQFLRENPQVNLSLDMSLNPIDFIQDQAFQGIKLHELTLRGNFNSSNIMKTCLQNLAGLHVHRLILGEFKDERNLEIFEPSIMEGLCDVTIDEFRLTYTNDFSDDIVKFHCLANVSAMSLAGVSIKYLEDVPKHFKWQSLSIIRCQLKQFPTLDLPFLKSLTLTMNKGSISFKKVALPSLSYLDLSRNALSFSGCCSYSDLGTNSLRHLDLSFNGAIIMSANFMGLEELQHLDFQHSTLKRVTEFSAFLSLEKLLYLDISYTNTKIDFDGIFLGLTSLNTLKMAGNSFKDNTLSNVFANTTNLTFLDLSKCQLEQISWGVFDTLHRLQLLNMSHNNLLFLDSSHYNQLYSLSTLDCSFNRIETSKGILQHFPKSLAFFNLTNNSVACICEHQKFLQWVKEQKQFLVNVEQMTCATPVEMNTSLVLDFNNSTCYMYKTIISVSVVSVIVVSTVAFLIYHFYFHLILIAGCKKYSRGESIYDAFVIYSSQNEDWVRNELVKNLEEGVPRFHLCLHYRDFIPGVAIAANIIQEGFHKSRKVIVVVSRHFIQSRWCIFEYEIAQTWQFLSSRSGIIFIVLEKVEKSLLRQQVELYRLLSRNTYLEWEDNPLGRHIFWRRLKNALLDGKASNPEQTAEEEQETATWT
T1 sequence (Q9JHF9 19-160): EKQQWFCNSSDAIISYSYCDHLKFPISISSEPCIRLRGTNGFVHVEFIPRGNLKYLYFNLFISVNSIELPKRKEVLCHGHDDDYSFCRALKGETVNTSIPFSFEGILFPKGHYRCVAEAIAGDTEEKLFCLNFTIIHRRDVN
Procedure: FIG. 2A is a graph plotting the level of reporter activity in HEK/TLR4(+) cells transfected with NFκB- and control-luciferase reporter plasmids and then stimulated with intact HS or LPS, or with HS or LPS that had been treated with nitrous acid (HNO2) at pH 4.0 or pH 1.5. Controls were treated with PBS vehicle. […] FIG. 2C is a graph showing the effect of PBS, HS, depolymerized HS (nitrous acid, pH 1.5), and recombinant human IL-1α on cell surface expression of TLR4/MD2 in HEK/TLR4(+) cells. Expression of TLR4 on the cell surface was determined by flow cytometry using a monoclonal antibody specific to the TLR4/MD2 complex. Values are the mean of triplicate wells and are representative of three separate experiments.
To determine whether the effect of HS occurred through specific action on TLR4, surface expression of the TLR4/MD2 complex on cells treated with HS was examined. […] Thus, HEK/TLR4(+) cells responded to HS by activating NFκB and mobilizing receptor complexes.

elastase: pancreatic elastase (Calbiochem; type IV porcine pancreatic elastase, Sigma-Aldrich), protease that cleaves ECM proteins
Loss of HS from blood vessels of spleen [1]: lost HS from blood vessels at the injection site

heparan sulfate [HS]
Decrease in surface expression of TLR4/MD2 [2]: 60%

lipopolysaccharide [LPS]
Change in surface expression of TLR4/MD2 [2]: a decrease similar to that induced by LPS
